Experimental data: patent publication US11001564B2, “Substituted chromane-8-carboxamide compounds and analogues thereof, and methods using same” (priority 2016, dated 2021)
Read-outs that look alike come from different tables or passages of the source.

System: HBV rcDNA in HepDE19 cells
Test: HepDE19 assay with bDNA quantitation of HBV rcDNA
Format: cell-based, hepatitis B virus (HBV)
Conditions: Hepatitis B virus, HepDE19, 168 h
Procedure: HepDE19 Assay with bDNA Quantitation of HBV rcDNA:
HepDE19 cell culture system is a HepG2 (human hepatocarcinoma) derived cell line that supports HBV DNA replication and cccDNA formation in a tetracycline (Tet)-regulated manner and produces HBV rcDNA and a detectable reporter molecule dependent on the production and maintenance of cccDNA (Guo, et al., 2007, J. Virol. 81:12472-12484).
HepDE19 (50,000 cells/well) were plated in 96 well collagen-coated tissue-culture treated microtiter plates in DMEM/F12 medium supplemented with 10% fetal bovine serum, 1% penicillin-streptomycin and 1 μg/mL tetracycline and incubated in a humidified incubator at 37° C. and 5% CO2 overnight. Next day, the cells were switched to fresh medium without tetracycline and incubated for 4 hours at 37° C. and 5% CO2. The cells were treated with fresh Tet-free medium with compounds at concentrations starting at 25 μM and a serial, ½ log, 8-point, titration series in duplicate. The final DMSO concentration in the assay was 0.5%. The plates were incubated for 7 days in a humidified incubator at 37° C. and 5% CO2. Following a 7 day-incubation, the level of rcDNA present in the inhibitor-treated wells was measured using a Quantigene 2.0 bDNA assay kit (Affymetrix, Santa Clara, Calif.) with HBV specific custom probe set and manufacturers instructions. Concurrently, the effect of compounds on cell viability was assessed using replicate plates, plated at a density of 5,000 cells/well and incubated for 4 days, to determine the ATP content as a measure of cell viability using the cell-titer glo reagent (CTG; Promega Corporation, Madison, Wis.) as per manufacturer's instructions. The plates were read using a Victor luminescence plate reader (PerkinElmer Model 1420 Multilabel counter) and the relative luminescence units (RLU) data generated from each well was calculated as % inhibition of the untreated control wells and analyzed using XL-Fit module in Microsoft Excel to determine EC50 and EC90 (bDNA) and CC50 (CTG) values using a 4-parameter curve fitting algorithm.
Representative compounds of the invention were tested for their ability to inhibit formation of relaxed circular DNA (rcDNA) in a HepDE19 assay, as described elsewhere herein.

[1] = read-out: DE-19 bDNA EC50, HepDE19 cells, 7 day incubation, rcDNA by Quantigene 2.0 bDNA assay
[2] = HepDE19 cells, 7 day incubation, rcDNA by Quantigene 2.0 bDNA assay, read-out: DE-19 bDNA EC50

| Compound | EC50 [1] [µM] | EC50 [2] [µM] |
| --- | --- | --- |
| CNC(=O)N[C@H]1CCOc2c(C(=O)Nc3ccc(F)c(F)c3)cccc21 [Compound 13, (S)—N-(3,4-difluorophenyl)-4-(3-methylureido) chromane-8-carboxamide] | 2.3 |  |
| CC[C@@H](C)OC1CCOc2c(C(=O)Nc3ccc(F)c(F)c3)cccc21 (stereo partly drawn) [Compound 14, 4-((R)-sec-butoxy)-N-(3,4-difluorophenyl)chromane-8-carboxamide] |  | 6 |
| O=C(N[C@H]1CCOc2c(C(=O)Nc3ccc(F)c(F)c3)cccc21)c1ccncc1 [Compound 16] |  | 13 |
| CCOC(=O)N[C@H]1CCOc2c(C(=O)Nc3ccc(F)c(F)c3)cccc21 [Compound 18, Ethyl (8-((3,4-difluorophenyl)carbamoyl)chroman-4-yl)carbamate] | 6.6 |  |
| COCCCOC(=O)N[C@H]1CCOc2c(C(=O)Nc3ccc(F)c(F)c3)cccc21 [Compound 19, 3-Methoxypropyl (8-((3,4-difluorophenyl)carbamoyl)chroman-4-yl) carbamate] |  | 6 |
| CC(C)OC(=O)N[C@H]1CCOc2c(C(=O)Nc3ccc(F)c(F)c3)cccc21 [Compound 20, Isopropyl (8-((3,4-difluorophenyl)carbamoyl)chroman-4-yl)carbamate] | 14 |  |
| CCCOC(=O)N[C@H]1CCOc2c(C(=O)Nc3ccc(F)c(F)c3)cccc21 [Compound 21, Propyl (8-((3,4-difluorophenyl)carbamoyl)chroman-4-yl)carbamate] | 22 |  |
| COCCOC(=O)N[C@H]1CCOc2c(C(=O)Nc3ccc(F)c(F)c3)cccc21 [Compound 22, 2-Methoxyethyl (8-((3,4-difluorophenyl)carbamoyl)chroman-4-yl) carbamate] | 4.7 |  |
| O=C(N[C@H]1CCOc2c(C(=O)Nc3ccc(F)c(F)c3)cccc21)OCc1cccnc1 [Compound 23] | 3 |  |
| O=C(Nc1ccc(F)c(F)c1)c1cccc2c1OCC[C@H]2NC(=O)N1CCCC1 [Compound 24, (R)-N-(8-((3,4-difluorophenyl)carbamoyl)chroman-4-yl)pyrrolidine-1-carboxamide] |  | 24 |
| O=C(N[C@H]1CCOc2c(C(=O)Nc3ccc(F)c(F)c3)cccc21)OCc1ccccn1 [Compound 27, Pyridin-2-ylmethyl-(8-((3,4-difluorophenyl)carbamoyl)chroman-4-yl)carbamate] |  | 2.5 |
| O=C(N[C@@H]1CCOc2c(C(=O)Nc3ccc(F)c(F)c3)cccc21)OCc1ccccn1 [Compound 28, pyridin-2-ylmethyl (R)-(8-((3,4-difluorophenyl)carbamoyl)chroman-4-yl)carbamate] |  | 15 |
| O=C(N[C@H]1CCOc2c(C(=O)Nc3ccc(F)c(F)c3)cccc21)OCc1ccncc1 [Compound 29, Pyridin-4-ylmethyl-(8-((3,4-difluorophenyl)carbamoyl)chroman-4-yl)carbamate] |  | 2.2 |
| O=C(N[C@@H]1CCOc2c(C(=O)Nc3ccc(F)c(F)c3)cccc21)OCc1ccncc1 [Compound 30, pyridin-4-ylmethyl (R)-(8-((3,4-difluorophenyl)carbamoyl)chroman-4-yl)carbamate] |  | 11 |
| COC(=O)N[C@H]1CCOc2c(C(=O)NCc3ccc(F)cc3)cccc21 [Compound 31, Methyl (S)-(8-((4-fluorobenzyl)carbamoyl)chroman-4-yl)carbamate] |  | 17 |
| COC(=O)N[C@H]1CCOc2c(C(=O)Nc3ccc(F)c(Cl)c3)cccc21 [Compound 32, Methyl (S)-(8-((3-chloro-4-fluorophenyl)carbamoyl)chroman-4-yl)carbamate] |  | 0.85 |
| COC(=O)N[C@H]1CCOc2c(C(=O)Nc3ccc(F)cc3)cccc21 [Compound 33, Methyl (S)-(8-((4-fluorophenyl)carbamoyl)chroman-4-yl)carbamate] |  | 3.5 |

| Compound | EC50 [1] [µM] | EC50 [2] [µM] |
| --- | --- | --- |
| NC(=O)NC1CCOc2c(C(=O)Nc3ccc(F)c(F)c3)cccc21 (stereo not drawn) [Compound 34, N-(3,4-Difluorophenyl)-4-ureidochromane-8-carboxamide] |  | 4.7 |
| COC(=O)N[C@H]1CCOc2c(C(=O)Nc3ccccc3)cccc21 [Compound 35, Methyl (S)-(8-(phenylcarbamoyl)chroman-4-yl)carbamate] |  | 7.5 |
| COC(=O)N[C@H]1CCOc2c(C(=O)NCc3cccc(F)c3)cccc21 [Compound 36, methyl (S)-(8-((3-fluorobenzyl)carbamoyl)chroman-4-yl)carbamate] |  | 22 |
| COC(=O)N[C@H]1CCOc2c(C(=O)Nc3cccc(Cl)c3)cccc21 [Compound 37, Methyl (S)-(8-((3-chlorophenyl)carbamoyl)chroman-4-yl)carbamate] |  | 2.8 |
| COC(=O)N[C@H]1CCOc2c(C(=O)Nc3ccc(F)c(F)c3)ccc(F)c21 [Compound 38, methyl (S)-(8-((3,4-difluorophenyl)carbamoyl)-5-fluorochroman-4-yl)carbamate] | 0.57 |  |
| COC(=O)N[C@@H]1CCOc2c(C(=O)Nc3ccc(F)c(F)c3)ccc(F)c21 [Compound 39, methyl (R)-(8-((3,4-difluorophenyl)carbamoyl)-5-fluorochroman-4-yl)carbamate] |  | 8.5 |
| CNC(=O)N[C@H]1CCOc2c(C(=O)Nc3ccc(F)c(F)c3)ccc(F)c21 [Compound 40, (S)—N-(3,4-difluorophenyl)-5-fluoro-4-(3-methylureido)chromane-8-carboxamide] | 0.67 |  |
| CNC(=O)N[C@@H]1CCOc2c(C(=O)Nc3ccc(F)c(F)c3)ccc(F)c21 [Compound 41, (R)-N-(3,4-difluorophenyl)-5-fluoro-4-(3-methylureido) chromane-8-carboxamide] |  | 23 |
| O=C(Nc1ccc(F)c(F)c1)c1cccc2c1OCC[C@@H]2Nc1ncccn1 [Compound 42, (S)-N-(3,4-difluorophenyl)-4-(pyrimidin-2-ylamino) chromane-8-carboxamide] |  | 3.4 |
| COC(=O)N[C@H]1CCOc2c(C(=O)Nc3cccc(C#N)c3)cccc21 [Compound 43, Methyl (S)-(8-((3-cyanophenyl)carbamoyl)chroman-4-yl)carbamate] |  | 8.7 |
| COC(=O)N[C@H]1CCOc2c(C(=O)Nc3ccc(F)c(C(F)(F)F)c3)cccc21 [Compound 44, Methyl (S)-(8-((4-fluoro-3-(trifluoromethyl)phenyl)carbamoyl)chroman-4-yl)carbamate] |  | 3.5 |
| COC(=O)N[C@H]1CCOc2c(C(=O)Nc3cc(F)c(F)c(F)c3)cccc21 [Compound 45, Methyl (S)-(8-((3,4,5-trifluorophenyl)carbamoyl)chroman-4-yl)carbamate] |  | 1.2 |
| COC(=O)N[C@H]1CCOc2c(C(=O)Nc3cc(F)cc(F)c3)cccc21 [Compound 46, Methyl (S)-(8-((3,5-difluorophenyl)carbamoyl)chroman-4-yl)carbamate] |  | 5.8 |
| COC(=O)N[C@H]1CCOc2c1ccc(F)c2C(=O)Nc1ccc(F)c(F)c1 [Compound 47, Methyl (8-((3,4-difluorophenyl)carbamoyl)-7-fluorochroman-4-yl)carbamate] | 3.6 |  |
| CNC(=O)N[C@H]1CCOc2c1ccc(F)c2C(=O)Nc1ccc(F)c(F)c1 [Compound 48, (S)-N-(3,4-difluorophenyl)-7-fluoro-4-(3-methylureido) chromane-8-carboxamide] |  | 6.7 |
| COC(=O)N[C@H]1CCOc2c(C(=O)Nc3cccc(C(F)(F)F)c3)cccc21 [Compound 49] | 11 |  |
